Drawing on US12441722B2, “Therapeutic agents and methods of treatment” (University of Florida Research Foundation, Incorporated, priority 2020, dated 2025), this text covers EC50 for 14 compounds.

Molecules are shown by their SMILES.

The test system of the first assay is MOLT-4. The assay can be described thus: Cell viability assay (tetrazolium-based MTS) in MOLT4 cells. The settings on record: Homo sapiens, MOLT-4, MOLT4 acute lymphoblastic leukemia cells, 48 h incubation. The procedure:
Cancer cells from acute lymphoblastic leukemia (MOLT4) were incubated with increasing concentrations of compounds of Examples 1-9 for 48 h. Cell viability was measured by tetrazolium-based MTS assay. 5×10^4 to 1×10^5 suspension cells or 3×10^3 to 5×10^3 adherent cells were seeded and treated in 96-well plates for 48 h. The EC50 values of individual agents were calculated with GraphPad Prism.
As for `Cc1ncsc1-c1ccc([C@H](CC(=O)NCCCNC(=O)c2nc(N3CCc4cccc(C(=O)Nc5nc6ccccc6s5)c4C3)ccc2-c2cnn(CC34CC5CC(CC(C5)C3)C4)c2C)NC(=O)[C@@H]2C[C@@H](O)CN2C(=O)[C@@H](NC(=O)C2(C#N)CC2)C(C)(C)C)cc1` [degrader #21, 2-(5-(1-(adamantan-1-ylmethyl)-5-methyl-1H-pyrazol-4-yl)-6-((3-((S)-3-((2S,4R)-1-((S)-2-(1-cyanocyclopropane-1-carboxamido)-3,3-dimethylbutanoyl)-4-hydroxypyrrolidine-2-carboxamido)-3-(4-(4-methylthiazol-5-yl)phenyl)propanamido)propyl)carbamoyl)pyridin-2-yl)-N-(benzo[d]thiazol-2-yl)-1,2,3,4-tetrahydroisoquinoline-8-carboxamide], the concentration giving a half-maximal response (EC50) – broadly, the concentration giving half of the maximal effect – was 0.1 to 1 µM. The same measure, in the same setting: with `Cc1c(-c2ccc(N3CCc4cccc(C(=O)Nc5nc6ccccc6s5)c4C3)nc2C(=O)NCCOCCNc2cccc3c2C(=O)N(C2CCC(=O)NC2=O)C3=O)cnn1CC12CC3CC(CC(C3)C1)C2` (centres unmarked) [degrader #6, 2-(5-(1-(adamantan-1-ylmethyl)-5-methyl-1H-pyrazol-4-yl)-6-((2-(2-((2-(2,6-dioxopiperidin-3-yl)-1,3-dioxoisoindolin-4-yl)amino)ethoxy)ethyl)carbamoyl)pyridin-2-yl)-N-(benzo[d]thiazol-2-yl)-1,2,3,4-tetrahydroisoquinoline-8-carboxamide] the figure was 0.01 to 0.1 µM. As to `Cc1ncsc1-c1ccc([C@H](C)NC(=O)[C@@H]2C[C@@H](O)CN2C(=O)[C@@H](NC(=O)CCCCS(=O)(=O)NC(=O)c2nc(N3CCc4cccc(C(=O)Nc5nc6ccccc6s5)c4C3)ccc2-c2cnn(CC34CC5CC(CC(C5)C3)C4)c2C)C(C)(C)C)cc1` [degrader #10, 2-(5-(1-(adamantan-1-ylmethyl)-5-methyl-1H-pyrazol-4-yl)-6-(((5-(((S)-1-((2S,4R)-4-hydroxy-2-(((S)-1-(4-(4-methylthiazol-5-yl)phenyl)ethyl)carbamoyl)pyrrolidin-1-yl)-3,3-dimethyl-1-oxobutan-2-yl)amino)-5-oxopentyl)sulfonyl)carbamoyl)pyridin-2-yl)-N-(benzo[d]thiazol-2-yl)-1,2,3,4-tetrahydroisoquinoline-8-carboxamide], the EC50 is less than 0.01 µM. The same measure, in the same setting: the result for `Cc1ncsc1-c1ccc([C@H](C)NC(=O)[C@@H]2C[C@@H](O)CN2C(=O)[C@@H](NC(=O)CCCCCCCCS(=O)(=O)NC(=O)c2nc(N3CCc4cccc(C(=O)Nc5nc6ccccc6s5)c4C3)ccc2-c2cnn(CC34CC5CC(CC(C5)C3)C4)c2C)C(C)(C)C)cc1` [degrader #14, 2-(5-(1-(adamantan-1-ylmethyl)-5-methyl-1H-pyrazol-4-yl)-6-(((9-(((S)-1-((2S,4R)-4-hydroxy-2-(((S)-1-(4-(4-methylthiazol-5-yl)phenyl)ethyl)carbamoyl)pyrrolidin-1-yl)-3,3-dimethyl-1-oxobutan-2-yl)amino)-9-oxononyl)sulfonyl)carbamoyl)pyridin-2-yl)-N-(benzo[d]thiazol-2-yl)-1,2,3,4-tetrahydroisoquinoline-8-carboxamide] reads less than 0.01 µM; that for `Cc1ncsc1-c1ccc([C@H](CC(=O)NCCCCNC(=O)c2nc(N3CCc4cccc(C(=O)Nc5nc6ccccc6s5)c4C3)ccc2-c2cnn(CC34CC5CC(CC(C5)C3)C4)c2C)NC(=O)[C@@H]2C[C@@H](O)CN2C(=O)[C@@H](NC(=O)C2(C#N)CC2)C(C)(C)C)cc1` [degrader #22, 2-(5-(1-(adamantan-1-ylmethyl)-5-methyl-1H-pyrazol-4-yl)-6-((4-((S)-3-((2S,4R)-1-((S)-2-(1-cyanocyclopropane-1-carboxamido)-3,3-dimethylbutanoyl)-4-hydroxypyrrolidine-2-carboxamido)-3-(4-(4-methylthiazol-5-yl)phenyl)propanamido)butyl)carbamoyl)pyridin-2-yl)-N-(benzo[d]thiazol-2-yl)-1,2,3,4-tetrahydroisoquinoline-8-carboxamide], 0.01 to 0.1 µM.

The same assay, now with this note: MOLT4 acute lymphoblastic leukemia cells, 48 h incubation.
The compound `Cc1c(-c2ccc(N3CCc4cccc(C(=O)Nc5nc6ccccc6s5)c4C3)nc2C(=O)O)cnn1CC12CC3CC(C1)CC(C(=O)NCCCCCCCCNc1cccc4c1C(=O)N(C1CCC(=O)NC1=O)C4=O)(C3)C2` (centres unmarked) [degrader #36, 6-(8-(benzo[d]thiazol-2-ylcarbamoyl)-3,4-dihydroisoquinolin-2(1H)-yl)-3-(1-(((1r,3r)-3-((8-((2-(2,6-dioxopiperidin-3-yl)-1,3-dioxoisoindolin-4-yl)amino)octyl)carbamoyl)adamantan-1-yl)methyl)-5-methyl-1H-pyrazol-4-yl)picolinic acid] gave an EC50 of less than 0.01 µM.

For `Cc1ncsc1-c1ccc([C@H](C)NC(=O)[C@@H]2C[C@@H](O)CN2C(=O)[C@@H](NC(=O)CCCCNC(=O)C23CC4CC(CC(Cn5ncc(-c6ccc(N7CCc8cccc(C(=O)Nc9nc%10ccccc%10s9)c8C7)nc6C(=O)O)c5C)(C4)C2)C3)C(C)(C)C)cc1` [degrader #42, 6-(8-(benzo[d]thiazol-2-ylcarbamoyl)-3,4-dihydroisoquinolin-2(1H)-yl)-3-(1-(((1S,3r)-3-((5-(((S)-1-((2S,4R)-4-hydroxy-2-(((S)-1-(4-(4-methylthiazol-5-yl)phenyl)ethyl)carbamoyl)pyrrolidin-1-yl)-3,3-dimethyl-1-oxobutan-2-yl)amino)-5-oxopentyl)carbamoyl)adamantan-1-yl)methyl)-5-methyl-1H-pyrazol-4-yl)picolinic acid], the EC50 was greater than 1 µM.

Regarding `Cc1c(-c2ccc(N3CCc4cccc(C(=O)Nc5nc6ccccc6s5)c4C3)nc2C(=O)O)cnn1CC12CC3CC(C1)CC(C(=O)NCCOCCOCCOCCNc1cccc4c1C(=O)N(C1CCC(=O)NC1=O)C4=O)(C3)C2` (centres unmarked) [degrader #40, 6-(8-(benzo[d]thiazol-2-ylcarbamoyl)-3,4-dihydroisoquinolin-2(1H)-yl)-3-(1-(((1r,3r)-3-((2-(2-(2-(2-((2-(2,6-dioxopiperidin-3-yl)-1,3-dioxoisoindolin-4-yl)amino)ethoxy)ethoxy)ethoxy)ethyl)carbamoyl)adamantan-1-yl)methyl)-5-methyl-1H-pyrazol-4-yl)picolinic acid], the EC50 fell in the range of 0.01 to 0.1 µM. For the compound `Cc1c(-c2ccc(N3CCc4cccc(C(=O)Nc5nc6ccccc6s5)c4C3)nc2C(=O)NCCOCCOCCOCC#Cc2ccc3c(c2)C(=O)N(C2CCC(=O)NC2=O)C3=O)cnn1CC12CC3CC(CC(C3)C1)C2` (centres unmarked) [degrader #27, 2-(5-(1-(adamantan-1-ylmethyl)-5-methyl-1H-pyrazol-4-yl)-6-((2-(2-(2-((3-(2-(2,6-dioxopiperidin-3-yl)-1,3-dioxoisoindolin-5-yl)prop-2-yn-1-yl)oxy)ethoxy)ethoxy)ethyl)carbamoyl)pyridin-2-yl)-N-(benzo[d]thiazol-2-yl)-1,2,3,4-tetrahydroisocuinoline-8-carboxamnide], the EC50 lay in the range of 0.01 to 0.1 µM. Compound `Cc1c(-c2ccc(N3CCc4cccc(C(=O)Nc5nc6ccccc6s5)c4C3)nc2C(=O)NCCOCCOCCOCCCc2ccc3c(c2)C(=O)N(C2CCC(=O)NC2=O)C3=O)cnn1CC12CC3CC(CC(C3)C1)C2` (centres unmarked) [degrader #31, 2-(5-(1-(adamantan-1-ylmethyl)-5-methyl-1H-pyrazol-4-yl)-6-((2-(2-(2-(3-(2-(2,6-dioxopiperidin-3-yl)-1,3-dioxoisoindolin-5-yl)propoxy)ethoxy)ethoxy)ethyl)carbamoyl)pyridin-2-yl)-N-(benzo[d]thiazol-2-yl)-1,2,3,4-tetrahydroisociuinoline-8-carboxamide] showed an EC50 of less than 0.01 µM. `Cc1c(-c2ccc(N3CCc4cccc(C(=O)Nc5nc6ccccc6s5)c4C3)nc2C(=O)O)cnn1CC12CC3CC(C1)CC(C(=O)NCCCCCCCCCCCCNc1cccc4c1C(=O)N(C1CCC(=O)NC1=O)C4=O)(C3)C2` (centres unmarked) [degrader #38, 6-(8-(benzo[d]thiazol-2-ylcarbamoyl)-3,4-dihydroisoquinolin-2(1H)-yl)-3-(1-(((1r,3r)-3-((12-((2-(2,6-dioxopiperidin-3-yl)-1,3-dioxoisoindolin-4-yl)amino)dodecyl)carbamoyl)adamantan-1-yl)methyl)-5-methyl-1H-pyrazol-4-yl)picolinic acid] gave an EC50 of 0.01 to 0.1 µM. As for `Cc1c(-c2ccc(N3CCc4cccc(C(=O)Nc5nc6ccccc6s5)c4C3)nc2C(=O)O)cnn1CC12CC3CC(C1)CC(C(=O)NCCCCNc1cccc4c1C(=O)N(C1CCC(=O)NC1=O)C4=O)(C3)C2` (centres unmarked) [degrader #34, 6-(8-(benzo[d]thiazol-2-ylcarbamoyl)-3,4-dihydroisoquinolin-2(1H)-yl)-3-(1-(((1r,3r)-3-((4-((2-(2,6-dioxopiperidin-3-yl)-1,3-dioxoisoindolin-4-yl)amino)butyl)carbamoyl)adamantan-1-yl)methyl)-5-methyl-1H-pyrazol-4-yl)picolinic acid], the EC50 fell in the range of 0.01 to 0.1 µM. The same measure, in the same setting: the result for `Cc1c(-c2ccc(N3CCc4cccc(C(=O)Nc5nc6ccccc6s5)c4C3)nc2C(=O)NCCOCCOCCOCCCc2cccc3c2C(=O)N(C2CCC(=O)NC2=O)C3=O)cnn1CC12CC3CC(CC(C3)C1)C2` (centres unmarked) [degrader #30, 2-(5-(1-(adamantan-1-ylmethyl)-5-methyl-1H-pyrazol-4-yl)-6-((2-(2-(2-(3-(2-(2,6-dioxopiperidin-3-yl)-1,3-dioxoisoindolin-4-yl)propoxy)ethoxy)ethoxy)ethyl)carbamoyl)pyridin-2-yl)-N-(benzo[d]thiazol-2-yl)-1,2,3,4-tetrahydroisociuinoline-8-carboxamide] reads less than 0.01 µM; that for `Cc1c(-c2ccc(N3CCc4cccc(C(=O)Nc5nc6ccccc6s5)c4C3)nc2C(=O)NCCOCCOCCOCCCc2ccc3c(c2)CN(C2CCC(=O)NC2=O)C3=O)cnn1CC12CC3CC(CC(C3)C1)C2` (centres unmarked) [degrader #33, 2-(5-(1-(adamantan-1-ylmethyl)-5-methyl-1H-pyrazol-4-yl)-6-((2-(2-(2-(3-(2-(2,6-dioxopiperidin-3-yl)-1-oxoisoindolin-5-yl)propoxy)ethoxy)ethoxy)ethyl)carbamoyl)pyridin-2-yl)-N-(benzo[d]thiazol-2-yl) 1,2,3,4-tetrahydroisociuinoline-8-carboxamide], less than 0.01 µM.
